Measured values: patent publication US9550739B2, “Molecules having certain pesticidal utilities, and intermediates, compositions, and processes related thereto” (priority 2014, dated 2017)
Like-named read-outs stand apart in the source and are kept apart here.

Tests used:
Type in all cases: in vivo
[1] = test system: Beet Armyworm (Spodoptera exigua, LAPHEG) ("BAW"); test: Bioassays on Beet Armyworm (BAW), 128-well diet tray assay; details: Spodoptera exigua, 168 h, read-out: BAW % Control (or Mortality) rating
Description: (§1) Certain molecules disclosed in this document were tested against BAW and CEW using procedures described in the following examples. In the reporting of the results, the “BAW & CL Rating Table” was used (See Table Section).
Bioassays on BAW were conducted using a 128-well diet tray assay. one to five second instar BAW larvae were placed in each well (3 mL) of the diet tray that had been previously filled with 1 mL of artificial diet to which 50 μg/cm^2 of the test compound (dissolved in 50 μL of 90:10 acetone-water mixture) had been applied (to each of eight wells) and then allowed to dry. Trays were covered with a clear self-adhesive cover and held at 25° C., 14:10 light-dark for five to seven days. Percent mortality was recorded for the larvae in each well; activity in the eight wells was then averaged. The results are indicated in the table entitled “Table ABC: Biological Results” (See Table Section).

[2] = test system: Cabbage Looper (Trichoplusia ni, TRIPNI) ("CL"); test: Bioassays on Cabbage Looper (CL), 128-well diet tray assay; details: Trichoplusia ni, 168 h, read-out: CL % Control (or Mortality) rating
Description: as §1
Bioassays on CL were conducted using a 128-well diet tray assay. one to five second instar CL larvae were placed in each well (3 mL) of the diet tray that had been previously filled with 1 mL of artificial diet to which 50 μg/cm^2 of the test compound (dissolved in 50 μL of 90:10 acetone-water mixture) had been applied (to each of eight wells) and then allowed to dry. Trays were covered with a clear self-adhesive cover and held at 25° C., 14:10 light-dark for five to seven days. Percent mortality was recorded for the larvae in each well; activity in the eight wells was then averaged. The results are indicated in the table entitled “Table ABC: Biological Results” (See Table Section).

[3] = test system: Yellow Fever Mosquito (Aedes aegypti, AEDSAE) ("YFM"); details: about 1 day-old larvae, 4000 ppm master solution diluted, 3 days, room temperature
Description: Certain molecules disclosed in this document were tested against YFM using procedures described in the following paragraph. In the reporting of the results, the “YFM Rating Table” was used (See Table Section).
Master plates containing 400 μg of a molecule dissolved in 100 μL of dimethyl sulfoxide (DMSO) (equivalent to a 4000 ppm solution) are used. A master plate of assembled molecules contains 15 μL per well. To this plate, 135 μL of a 90:10 water:acetone mixture is added to each well. A robot (Biomek® NXP Laboratory Automation Workstation) is programmed to dispense 15 μL aspirations from the master plate into an empty 96-well shallow plate (“daughter” plate). There are 6 reps (“daughter” plates) created per master. The created daughter plates are then immediately infested with YFM larvae.
The day before plates are to be treated, mosquito eggs are placed in Millipore water containing liver powder to begin hatching (4 g. into 400 mL). After the daughter plates are created using the robot, they are infested with 220 μL of the liver powder/larval mosquito mixture (about 1 day-old larvae). After plates are infested with mosquito larvae, a non-evaporative lid is used to cover the plate to reduce drying. Plates are held at room temperature for 3 days prior to grading. After 3 days, each well is observed and scored based on mortality.

[4] = second instar BAW larvae, 50 μg/cm^2 on artificial diet, five to seven days, 25° C.

Row | SMILES | mortality at 50 µg/cm2 [1, 4] | mortality at 50 µg/cm2 [2] | YFM % Control (or Mortality) rating [3] | mortality at 50 µg/cm2 [1]
1 | Cc1ccccc1-c1cc(F)cc(C(=O)Nc2ccc(-c3ncn(-c4ccc(OC(F)(F)F)cc4)n3)cc2)c1 [F39, 5-Fluoro-2′-methyl-N-(4-(1-(4-(trifluoromethoxy)phenyl)-1H-1,2,4-triazol-3-yl)phenyl)-[1,1′-biphenyl]-3-carboxamide] | 50 to 100% | 50 to 100% | D (No activity noticed in this bioassay) | –
2 | O=C(Nc1ccc(-c2ncn(-c3ccc(OC(F)(F)F)cc3)n2)cc1)c1cc(-c2ccccc2)ccc1F [F48, 4-Fluoro-N-(4-(1-(4-(trifluoromethoxy)phenyl)-1H-1,2,4-triazol-3-yl)phenyl)-[1,1′-biphenyl]-3-carboxamide] | 0% | 50 to 100% | D (No activity noticed in this bioassay) | –
3 | O=C(Nc1ccc(-c2ncn(-c3ccc(OC(F)(F)F)cc3)n2)cc1)c1cccc(-c2ccccc2OC(F)(F)F)c1 [F1, 2′-(Trifluoromethoxy)-N-(4-(1-(4-(trifluoromethoxy)phenyl)-1H-1,2,4-triazol-3-yl)phenyl)-[1,1′-biphenyl]-3-carboxamide] | 0% | 50 to 100% | D (No activity noticed in this bioassay) | –
4 | Cc1ccccc1-c1cc(F)cc(C(=O)Nc2ccc(-c3ncn(-c4ccc(OC(F)(F)C(F)(F)F)cc4)n3)cc2)c1 [F42, 5-Fluoro-2′-methyl-N-(4-(1-(4-(perfluoroethoxy)phenyl)-1H-1,2,4-triazol-3-yl)phenyl)-[1,1′-biphenyl]-3-carboxamide] | 0% | 50 to 100% | D (No activity noticed in this bioassay) | –
5 | O=C(Nc1ccc(-c2ncn(-c3ccc(C(F)(F)F)cc3)n2)cc1)c1ccccn1 [F68, N-(4-(1-(4-(trifluoromethyl)phenyl)-1H-1,2,4-triazol-3-yl)phenyl)picolinamide] | 0 to 50% | 0% | D (No activity noticed in this bioassay) | –
6 | COc1ccc(C(=O)Nc2ccc(-c3ncn(-c4ccc(OC(F)(F)F)cc4)n3)cc2)cc1-c1ccccc1 [F37, 6-Methoxy-N-(4-(1-(4-(trifluoromethoxy)phenyl)-1H-1,2,4-triazol-3-yl)phenyl)-[1,1′-biphenyl]-3-carboxamide] | 50 to 100% | 50 to 100% | A (80-100) | –
7 | O=C(Nc1ccc(-c2ncn(-c3ccc(OC(F)(F)F)cc3)n2)cc1)c1cc(-c2ccccc2)ccc1Cl [F15, 4-Chloro-N-(4-(1-(4-(trifluoromethoxy)phenyl)-1H-1,2,4-triazol-3-yl)phenyl)-[1,1′-biphenyl]-3-carboxamide] | 0% | 0% | D (No activity noticed in this bioassay) | –
8 | COc1ccc(-c2cccc(C(=O)Nc3ccc(-c4ncn(-c5ccc(OC(F)(F)F)cc5)n4)cc3)c2)c(C)c1 [F49, 4′-Methoxy-2′-methyl-N-(4-(1-(4-(trifluoromethoxy)phenyl)-1H-1,2,4-triazol-3-yl)phenyl)-[1,1′-biphenyl]-3-carboxamide] | 50 to 100% | 50 to 100% | B (More than 0-Less than 80) | –
9 | CN(C)c1ccccc1-c1cccc(C(=O)Nc2ccc(-c3ncn(-c4ccc(OC(F)(F)F)cc4)n3)cc2)c1 [F10, 2′-(Dimethylamino)-N-(4-(1-(4-(trifluoromethoxy)phenyl)-1H-1,2,4-triazol-3-yl)phenyl)-[1,1′-biphenyl]-3-carboxamide] | 50 to 100% | 50 to 100% | B (More than 0-Less than 80) | –
10 | O=C(Nc1ccc(-c2ncn(-c3ccc(OC(F)(F)C(F)(F)F)cc3)n2)cc1)c1cc(Cl)cc(-c2ccccc2)c1 [F6, 5-Chloro-N-(4-(1-(4-(perfluoroethoxy)phenyl)-1H-1,2,4-triazol-3-yl)phenyl)-[1,1′-biphenyl]-3-carboxamide] | 0% | 0% | D (No activity noticed in this bioassay) | –
11 | O=C(Nc1ccc(-c2ncn(-c3ccc(OC(F)(F)F)cc3)n2)cc1)c1cc(F)cc(-c2ccccc2)c1 [F25, 5-Fluoro-N-(4-(1-(4-(trifluoromethoxy)phenyl)-1H-1,2,4-triazol-3-yl)phenyl)-[1,1′-biphenyl]-3-carboxamide] | – | 50 to 100% | D (No activity noticed in this bioassay) | 50 to 100%
12 | O=C(Nc1ccc(-c2ncn(-c3ccc(OC(F)(F)F)cc3)n2)cc1)c1cccc(-c2ccccc2OCc2ccccc2)c1 [F3, 2′-(Benzyloxy)-N-(4-(1-(4-(trifluoromethoxy)phenyl)-1H-1,2,4-triazol-3-yl)phenyl)-[1,1′-biphenyl]-3-carboxamide] | 0% | 0% | D (No activity noticed in this bioassay) | –
13 | O=C(Nc1ccc(-c2ncn(-c3ccc(OC(F)(F)F)cc3)n2)cc1)c1cccc(-c2ccccc2)n1 [F27, 6-Phenyl-N-(4-(1-(4-(trifluoromethoxy)phenyl)-1H-1,2,4-triazol-3-yl)phenyl)picolinamide] | 0 to 50% | 0% | D (No activity noticed in this bioassay) | –
14 | O=C(Nc1ccc(-c2ncn(-c3ccc(OC(F)(F)F)cc3)n2)cc1)c1ccc(F)c(-c2ccccc2F)c1 [F28, 2′,6-Difluoro-N-(4-(1-(4-(trifluoromethoxy)phenyl)-1H-1,2,4-triazol-3-yl)phenyl)-[1,1′-biphenyl]-3-carboxamide] | 50 to 100% | 50 to 100% | A (80-100) | –
15 | COc1ccccc1-c1cccc(C(=O)Nc2ccc(-c3ncn(-c4ccc(OC(F)(F)C(F)(F)F)cc4)n3)cc2)c1 [F26, 2′-Methoxy-N-(4-(1-(4-(perfluoroethoxy)phenyl)-1H-1,2,4-triazol-3-yl)phenyl)-[1,1′-biphenyl]-3-carboxamide] | 50 to 100% | 50 to 100% | A (80-100) | –
16 | O=C(Nc1ccc(-c2ncn(-c3ccc(OC(F)(F)F)cc3)n2)cc1)c1cccc(-c2ccc(Cl)cc2Cl)n1 [F18, 6-(2,4-Dichlorophenyl)-N-(4-(1-(4-(trifluoromethoxy)phenyl)-1H-1,2,4-triazol-3-yl)phenyl)picolinamide] | 0% | 0% | D (No activity noticed in this bioassay) | –
17 | COc1ccccc1-c1cccc(C(=S)Nc2ccc(-c3ncn(-c4ccc(OC(F)(F)F)cc4)n3)cc2)c1 [F21, 2′-Methoxy-N-(4-(1-(4-(trifluoromethoxy)phenyl)-1H-1,2,4-triazol-3-yl)phenyl)-[1,1′-biphenyl]-3-carbothioamide] | 50 to 100% | 50 to 100% | A (80-100) | –
18 | COc1ccccc1-c1cc(C(=O)Nc2ccc(-c3ncn(-c4ccc(OC(F)(F)F)cc4)n3)cc2)ccc1F [F44, 6-Fluoro-2′-methoxy-N-(4-(1-(4-(trifluoromethoxy)phenyl)-1H-1,2,4-triazol-3-yl)phenyl)-[1,1′-biphenyl]-3-carboxamide] | 50 to 100% | 50 to 100% | B (More than 0-Less than 80) | –
19 | Cc1ccccc1-c1cc(C(=O)NCCc2ccc(-c3ncn(-c4ccc(OC(F)(F)F)cc4)n3)cc2)ccc1F [F53, 6-Fluoro-2′-methyl-N-(4-(1-(4-(trifluoromethoxy)phenyl)-1H-1,2,4-triazol-3-yl)phenethyl)-[1,1′-biphenyl]-3-carboxamide] | 50 to 100% | 50 to 100% | A (80-100) | –
